{"source": "ChEMBL document CHEMBL1687795", "about": "“Mathematical modeling to characterize the inoculum effect” (2010)", "key": {"Escherichia coli [1]": {"test_system": "Escherichia coli", "assay": "Antimicrobial activity against Escherichia coli ATCC 25922 by broth macrodilution method in presence of beta-lactamase inhibitor Tazobactam", "format": "functional, organism-based"}, "Escherichia coli [2]": {"test_system": "Escherichia coli", "assay": "Antimicrobial activity against Escherichia coli ATCC 25922 by broth macrodilution method", "format": "functional"}, "Escherichia coli [3]": {"test_system": "Escherichia coli", "assay": "Bactericidal activity against Escherichia coli ATCC 25922 using 10^8 CFU/ml inoculum assessed as log reduction in bacterial count at 256 times MIC after 24 hrs by time-kill study", "format": "functional"}, "Escherichia coli [4]": {"test_system": "Escherichia coli", "assay": "Bactericidal activity against Escherichia coli ATCC 25922 using 10^5 CFU/ml inoculum assessed as log reduction in bacterial count at 4 times MIC after 24 hrs by time-kill study", "format": "functional"}}, "note": "The source made the active and inactive calls. The calls are words filed in the database; no cut-off is given here.", "data": [{"smiles": "CCN1CCN(C(=O)N[C@@H](C(=O)N[C@@H]2C(=O)N3[C@@H]2SC(C)(C)[C@@H]3C(=O)O)c2ccccc2)C(=O)C1=O", "note": "[PIPERACILLIN]", "values": [{"measurement": "Activity", "setting": "Escherichia coli [1]", "result": "Active"}, {"measurement": "MBC", "setting": "Escherichia coli [2]", "result": 2, "unit": "µg/mL"}, {"measurement": "MIC", "setting": "Escherichia coli [2]", "result": 2, "unit": "µg/mL"}, {"measurement": "FC", "setting": "Escherichia coli [3]", "result": ">2"}, {"measurement": "FC", "setting": "Escherichia coli [4]", "result": ">2"}]}]}
